Results on 78 compounds are retold here after article PMC12040169 (PLOS Biology, 2025).

This data set in a line: in vitro. To be noted: human, hela cells, % viability.
What is called viability is a read-out of living cells in per cent, often relative to untreated cells. As for `Cc1cc(=O)n2c3ccccc3n(CC(O)CN3CCN(C(c4ccccc4)c4ccccc4)CC3)c2c1C#N` (stereo not drawn) [CBK268375], the viability at 28.5 h, 10 µM amounted to 89.8%. As for `COc1ccc(/C=N\N(C)c2nc(-c3ccccc3)cc(-c3ccc(Br)cc3)n2)cc1OC` [CBK261799], the viability at 28.5 h, 10 µM was 104%. The figure for `CCOC(=O)c1cn(CC)c2cc(N3CCCC3)c(F)cc2c1=O` [CBK307169] is 101%; for `CC(Cc1nc(C2(Cl)CC2)cs1)n1cc(Cl)cn1` (stereo not drawn) [CBK304715] it is 85.5%; for `COc1cc(NS(=O)(=O)c2ccc(Nc3nc(-c4sc(N)nc4C)cs3)cc2)nc(OC)n1` [CBK262796] it is 91.2%. With `CN1CCN(c2cccc(-c3ccc(CNC(=O)OC(C)(C)C)cc3)n2)CC1` [CBK037641], the viability at 28.5 h, 10 µM was found to be 95.2%. Consider `Clc1ccc(COc2cc(N3CCCN(CC4CC4)CC3)ncn2)cc1Cl` [CBK084070], for which the viability at 28.5 h, 10 µM was 90.8%. For `O=C(Cn1nc(C(F)(F)F)c2c1CCC2)N1CCN(Cc2ccccc2)CC1` [CBK266113], the viability at 28.5 h, 10 µM worked out at 109%. The figure for `NS(=O)(=O)c1ccc(NC(=O)CN2CCC(Cc3ccccc3)CC2)cc1` [CBK266161] is 98.6%. `C/C(O)=C1/C(=O)N(c2nc3ccccc3s2)N=C1CC(=O)O` [CBK265828]: the viability at 28.5 h, 10 µM came to 90.5%. `O=C(NCCN1CCc2ccccc21)C1CC2C=CC1O2` (stereo not drawn) [CBK283158]: the viability at 28.5 h, 10 µM was 96.2%. On to `CCCCNC(=S)NC1CC[C@@]2(Cc3ccc(OC)c(OC)c3)CCN(C)[C@H]2C1` (stereo partly drawn) [CBK023805], for which the viability at 28.5 h, 10 µM was determined as 81.5%.

For `Cc1cc2c(o1)c1cnn(CC(=O)N3CCCCCC3)c(=O)c1n2C` [CBK284219], the viability at 28.5 h, 10 µM came out at 81.2%. With `CCC(Oc1ccccc1C)C(=O)Nc1ccccc1C(=O)N(C)C` (stereo not drawn) [CBK270144] the figure was 88.4%; with `FC(F)(F)c1ccc(OCc2ccc(-c3ccccc3)cc2)nc1` [CBK115830], 94.6%; with `Cc1cc(-c2nnc(SCC(=O)N3CCOCC3)o2)no1` [CBK268984], 103%. The figure for `Oc1c(Cl)cc(Cl)cc1/C=N/c1ccc(-c2nc3ccc(/N=C/c4cc(Cl)cc(Cl)c4O)cc3[nH]2)cc1` [CBK261660] is 93.4%. The figure for `COC(=O)c1cccc(Oc2nc(OC)cc(OC)n2)c1` [CBK092219] is 66.1%; for `CN(C)S(=O)(=O)N(CC(=O)NCc1ccccc1Cl)c1ccccc1` [CBK269081] it is 103%. On to `Cc1cccc(C)c1NC(=O)CN1CCCN(c2nccc(OCC3COc4ccccc4O3)n2)CC1` (stereo not drawn) [CBK083974], for which the viability at 28.5 h, 10 µM was 102%. With `Cc1cc(Cl)cc(Br)c1OCCNCCN1CCOCC1` [CBK268615G] the figure was 111%; with `O=[N+]([O-])c1cc(/C=N/Nc2nnn[nH]2)ccc1N1CCOCC1` [CBK262199], 99.7%; with `COc1ncc(C(=O)NCc2cccnc2N(C)C2CCCCC2)cn1` [CBK306870], 91.8%. With `CC(C)(C)c1cc(Br)ccc1OCC(=O)Nc1nc[nH]n1` [CBK263379] the figure was 96.1%; with `Cc1nc(C(Cc2ccsc2)NC(=O)c2cc[nH]n2)sc1C` (stereo not drawn) [CBK284776], 85.9%; with `O=C1NC(=O)C(CCCCN2CCC(Cc3ccccc3)CC2)N1` (stereo not drawn) [CBK126435], 91.8%.

With `CC(C)CNc1nc2c(ncn2[C@H]2C[C@@H](O)[C@@H](CO)O2)c(=O)[nH]1` [CBK201198], the viability at 28.5 h, 10 µM was found to be 94.8%. Regarding `Cc1n[nH]c(C)c1C1COCCN1C(=O)c1cccc(F)c1` (stereo not drawn) [CBK305105], the viability at 28.5 h, 10 µM worked out at 86.9%. The figure for `Cn1cc(-c2nccnc2OCCOc2ccccc2)cn1` [CBK107080] is 94.9%. With `Cc1noc(C)c1S(=O)(=O)Nc1ccccc1C(=O)O` [CBK042371] the figure was 89.8%; with `Cc1cc(CN2CCN(CCc3ccccc3)CC2)no1` [CBK126426], 85.8%; with `Cn1nc(C(C)(C)C)cc1C(=O)N1CCC(N2C(=O)OCC2(C)C)CC1` [CBK044234], 81.5%. With `CC(C)NC(=O)NC[C@H]1C[C@@H]2CC[N@]1C[C@@H]2CN1CCN(c2ncccn2)CC1` [CBK289116] the figure was 89.7%; with `CCC(C(=O)Nc1sc2c(c1C(N)=O)CCCCCC2)c1ccccc1` (stereo not drawn) [CBK265383], 85.8%; with `COc1ccc(NC(=O)c2csc(Nc3ccccc3)n2)cc1OC` [CBK287840], 83.7%. On to `Fc1ccc(-c2cn(-c3ccc4c(c3)CCO4)nn2)cc1` [CBK113132], for which the viability at 28.5 h, 10 µM turned out to be 97%. For `Cc1cccc(-c2noc([C@@H]3Cc4[nH]cnc4CN3C(=O)CC(C)(C)CC(=O)O)n2)c1` [CBK288961], the viability at 28.5 h, 10 µM turned out to be 95.8%. The figure for `Cn1c(=O)n(C)c2cc(NC(=O)CN(c3ccccc3)S(C)(=O)=O)ccc21` [CBK270094] is 103%; for `O=S(=O)(N1CCCCC1)N1CCN(CC(O)COc2ccc3cc(Br)ccc3c2)CC1` (stereo not drawn) [CBK269032] it is 106%. With `O=C(CNC(=O)OCc1ccccc1)NCC(CCCN1CCN(c2ccccc2)CC1)(c1ccccc1)c1ccccc1` [CBK002293] the figure was 125%; with `O=C(NCC1CCOCC1)c1cc(-c2cccnc2)cnc1NCc1ccc2c(c1)OCO2` [CBK154825], 104%.

As to `COc1ccc(F)cc1-c1cccc(CC2(C(=O)NCc3cccs3)CCOCC2)c1` [CBK285543], the viability at 28.5 h, 10 µM came out at 90.6%. With `Cc1cc2cc(C(=O)NCC3CCCN(C(C)C)C3)ccc2o1` (stereo not drawn) [CBK282625], the viability at 28.5 h, 10 µM amounted to 105%. In the case of `O=C(O)C1CCCCC1C(=O)NCCc1ccccc1` (stereo not drawn) [CBK261707], the viability at 28.5 h, 10 µM stood at 94%.

On to `CCn1cnnc1SCC(=O)Nc1ccc(CN2CCOCC2)cc1` [CBK305072], for which the viability at 28.5 h, 10 µM was found to be 97.4%.

As to `O=C(Cc1cc(F)c(F)c(F)c1)NCCc1c[nH]c2ccc(Cl)cc12` [CBK159768], the viability at 28.5 h, 10 µM worked out at 112%. The figure for `CC(C)CN(CC(C)C)C(=O)Cn1cc([N+](=O)[O-])cc(C(N)=O)c1=O` [CBK297784] is 83.9%; for `CC(C)(C)c1ccc(C(=O)N2CCN(C(=O)CN3CCOCC3)C2)cc1` [CBK051554C] it is 112%; for `c1cnn(CCNc2nc3nonc3nc2N2CCCCC2)c1` [CBK306740] it is 83.8%. With `CCC(=O)Nc1nc2c(OC)ccc(C)c2s1` [CBK287616] the figure was 110%; with `Cc1c(C(=O)N2CCC(c3cc4ncccc4[nH]3)CC2)cnn1C` [CBK283384], 88.1%; with `CC(C)(C)C(=O)Nc1nnc(SCC(=O)N2CCc3ccccc32)s1` [CBK004889], 83.5%. With `c1nc(OC2CCOC2)cc(N2CCCC2)n1` (stereo not drawn) [CBK115899] the figure was 88.4%; with `COC(=O)c1ccccc1NC(=O)CSc1nnc(-c2ccccc2Cl)[nH]1` [CBK265966], 95.4%. In the case of `COc1ccc2cc(C(=O)NC3CCCN(C)C3)n(C)c2c1` (stereo not drawn) [CBK282541], the viability at 28.5 h, 10 µM was 85.1%. The figure for `COc1ccc(NC(=O)CC2Nc3cccc4cccc(c34)NC2=O)cc1` (stereo not drawn) [CBK267561] is 93.1%; for `Cc1cccc(NS(=O)(=O)c2cc(C(=O)NCc3ccccn3)ccc2C)c1` [CBK268767] it is 70.7%; for `OC(CN1CCN(c2cccc(Cl)c2)CC1)Cn1c2ccccc2c2ccccc21` (stereo not drawn) [CBK264333] it is 98.2%. Turning to `CN(C)CCN(C)C1CCN(Cc2ccccc2)CC1` [CBK261930], the viability at 28.5 h, 10 µM came to 102%. With `CC(C)NC(=O)[C@@H](C)C1CC[C@@]2(C)CC[C@H](NC(=O)c3cncnc3)[C@@H](C)[C@@H]2[C@H]1O` (stereo partly drawn) [CBK289454] the figure was 103%. With `O=[N+]([O-])c1cc(CN2CCN(c3ccccc3)CC2)c(O)c2ncccc12` [CBK218696] the figure was 99.6%; with `O=C(c1nc2ccccn2c1CN1CCCC(O)C1)N1CCOCC1` (stereo not drawn) [CBK307237], 88.4%; with `CN1CCCC1C(CCNC1CCCCC1)c1ccccc1` (stereo not drawn) [CBK023921C], 99%. As for `Cc1ccc(S(=O)(=O)NC[C@H]2CC[C@H](C(=O)O)CC2)cc1` [CBK286706], the viability at 28.5 h, 10 µM came to 96.1%. Turning to `O=C(NCCCN1CCOCC1)c1ccccc1Br` [CBK262602C], the viability at 28.5 h, 10 µM was 106%.

Turning to `O=C1CCC[C@]2(CN(Cc3ccccc3)C[C@H]2c2ccncc2)N1` [CBK283348], the viability at 28.5 h, 10 µM was 84.5%. Regarding `CC(=O)N1CCN(Cc2nc3cc(NC(=O)Cn4nc(C)c5ccccc5c4=O)ccc3n2C)CC1` [CBK267989], the viability at 28.5 h, 10 µM is 87.8%. With `C=CCN1C(=O)CC2(C1=O)C(=O)N(CCCn1c(=O)n(C)c3ccccc31)c1ccc(Cl)cc12` (stereo not drawn) [CBK075411] the figure was 94.6%; with `Cc1ccc2nc(-c3ccncc3)cc(C(=O)N3CCN(c4ncccn4)CC3)c2c1` [CBK267751], 93%; with `COc1ccc(-n2cc(-c3cccc(C(F)(F)F)c3)nn2)cc1OC` [CBK112933], 94.9%. Consider `O=C(c1cccnc1)N1CCN(C2CC(=O)N(c3ccc(F)cc3)C2=O)CC1` (stereo not drawn) [CBK270049], for which the viability at 28.5 h, 10 µM came to 91.5%. On to `Nc1nc2c(cnn2[C@H]2C[C@@H](O)[C@@H](CO)O2)c(=O)[nH]1` [CBK201223], for which the viability at 28.5 h, 10 µM came out at 101%. Regarding `CN(C)c1cccc(Nc2ccc(-c3cccc(C(=O)O)c3)cn2)c1` [CBK036879], the viability at 28.5 h, 10 µM amounted to 101%. With `CC(C)CC(CC(C)C)OCC(=O)NCC1(c2ccc3ccccc3c2)CCC1` [CBK067404] the figure was 109%.

Regarding `CC1(C)CC(N(Cc2ccccc2)Cc2c[nH]cn2)CC(C)(C)N1` [CBK283196], the viability at 28.5 h, 10 µM is 103%. Turning to `Cc1cc(C)n(CCCn2cncc2-c2ccc3c(c2)CC(C)N3C)n1` (stereo not drawn) [CBK281773], the viability at 28.5 h, 10 µM amounted to 62%.

For `Cc1cc(C[C@@H]2COC[C@H]2NCc2ccc(Cl)c(Cl)c2)on1` [CBK285400], the viability at 28.5 h, 10 µM was found to be 88%. With `COc1ccc(C(C)C)cc1-c1cncc(NCCc2c[nH]c3ccccc23)n1` [CBK065174] the figure was 96.5%.
